Legend:
hOB SFRP mRNA = assay: Northern blot analysis of hOB SFRP mRNA expression; assay type: cell-based, human; settings: for regulation of SFRP mRNA: SaOS-2 human osteosarcoma cells
Text: The hOB SFRP gene fragment was identified using RADE (rapid analysis of differential expression) technology as described by Shiue 1997 Drug Develop. Res. 41: 142–159, the whole of which is incorporated herein. Three hOB cell lines (hOB-03-C5, hOB-03-CE6 and hOB-01-C1), representing three distinct stages of differentiation (proliferative, mature and preosteocytic, respectively) were used to isolate and identify SFRP. The hOB cell lines were established and cultured as previously described (Bodine et al. 1996 J. Bone Miner. Res. 11: 806–819; Bodine et al. 1996 Endocrinology 137: 4592–4604; Bodine et al. 1997 J. Cell. Biochem. 65: 368–387). […] However, in contrast to osteosarcoma cells (Stein and Lian 1993 Endocrine Rev. 14: 424–442), the hOB cell lines were faithful to the proliferation/differentiation relationship at the nonpermissive temperature (>37° C.) when the T-antigen mutant is inactivated. The cell lines were seeded into 150 mm dishes at ˜40,000 cells/cm^2 with growth medium [D-MEM/F-12 containing 10% (v/v) heat-inactivated fetal bovine serum (FBS), 1% (v/v) Penicillin-Streptomycin and 2 mM GlutaMAX-1] and incubated overnight at 34° C. The next day, the medium was removed, the cells were rinsed with phosphate-buffered saline (PBS), 20 ml of serum-free medium was added to the dishes [phenol red-free D-MEM/F-12 (Gibco/BRL) containing 0.25% (w/v) bovine serum albumin (BSA, Pentex crystallized, Bayer), 1% (v/v) Penicillin-Streptomycin, 2 mM GlutaMAX-1, […] ascorbate-2-phosphate (Wako), and 10 nM menadione sodium bisulfite (vitamin K3)], and the dishes were incubated at 39° C. for 24 hr. The next day, the medium was removed and the cells were treated at 39° C. for an additional 24 hr with 20 ml of fresh serum-free medium containing either vehicle (Control), 8 nM human parathyroid hormone 1–34 (PTH), 100 nM prostaglandin E2 (PGE2) or 0.1 nM human transforming growth factor-β1 (TGF-β1). PTH, PGE2 and TGF-β1 are known osteogenic agents (Whitfield and Morley 1995 Trends Pharmaceut. Sci. 16:382–386; Jee and Ma 1997 Bone 21:297–304; Centrella et al. 1994 Endocrine Rev. 15:27–39). After the treatment period, the dishes were rinsed with PBS and total cellular RNA was isolated from the nontreated and treated cells using TRIzol according to the manufacturers instructions (GibcoBRL). RADE was then performed with the isolated RNA samples as above; the regulated gene fragments were identified, cloned and sequenced. These experiments identified a total of 82 differentially expressed genes. A BLAST (basic local alignment search tool) search of the public data bases was performed on the RADE-obtained gene fragments; one of the gene fragments was highly homologous to mouse SFRP-1. This gene fragment was identified during RADE using the following primer pair: 5′-[…]-3′ (HT11A)3′ end (reverse primer) and 5′-[…]-3′ (H-AP1) 5′ end (forward primer), which sequences are SEQ ID NO 11 and SEQ ID NO 12, respectively. The expression and regulation of the gene fragment having homology to mouse cDNA SFRP-1 was confirmed by Northern blot analysis.
In order to confirm the regulation of hOB SFRP gene expression by different osteogenic agents (i.e., the DNA fragment identified in Example 1, above), the hOB cell lines were treated with PTH, PGE2, and TGF-β1; RNA was then isolated for Northern hybridizations. The experiments were performed as follows. The hOB cell lines were seeded into 150 mm dishes and treated as described in Example 1, except that polyA+ RNA was isolated from total cellular RNA using Oligotex mRNA maxi kits as described by the manufacturer (Qiagen). Northern blot analysis was performed using either the excised RADE hOB SFRP gene fragment, the cloned hOB SFRP gene fragment or the cloned full-length hOB SFRP cDNA as a ^32P-labeled probe (as described in Bodine et al. 1996 J. Bone Miner. Res. 11: 806–819, which is incorporated herein). Each of these probes detected a 4.4–4.6 kb message in the hOB cells. […]

β-catenin = assay: Western blot analysis for β-catenin; assay type: cell-based, human; settings: hOB-03-CE6 cells, 100 nM, 24 hr
Protocol: FIG. 15 is an autoradiogram of a Western blot of whole cell extracts isolated from hOB-03-CE6 cells treated with either control or PGE2 for 24 hr. The immunoblot was probed with a monoclonal antibody to β-catenin, which has a molecular weight of 92,000.
In order to determine if the up-regulation of SFRP-1/FRP-1/SARP-2 gene expression results in an antagonism of the Wnt signaling pathway, hOB-03-CE6 cells were treated with PGE2 and the resulting cells probed with β-catenin monoclonal antibody. Overexpression of Wnt proteins in cells up-regulates a signaling protein known as β-catenin (reviewed in Moon et al. 1997 Cell 88: 725–728; Barth et al. 1997 Curr. Opin. Cell Biol. 9: 683–690; and Nusse 1997 Cell 89: 321–323). […] Therefore, hOB-03-CE6 cells were plated and treated with PGE2 as described in Example 1, except that total cellular protein was extracted and a Western blot analysis for β-catenin was performed using a monoclonal antibody to the protein (Transduction Laboratories) as previously described (Bodine et al. 1996 Endocrinology 137: 4592–4604; Melkonyan et al. 1997 Proc. Natl. Acad. Sci. USA 94: 13636–13641). […] Both human and rat SFRP-1/FRP-1/SARP-2, as well as human Frzb-1/FrzB/Fritz, suppressed TCF-luciferase activity in the hOB cells.

Row | EC50 (hOB SFRP mRNA; hOB-03-C5 cells, increasing concentrations, 24 hr, read-out: EC50 for up-regulation of hOB SFRP mRNA expression) | EC50 for up-regulation of hOB SFRP mRNA, times higher than in the hOB-03-C5 cells (hOB SFRP mRNA; hOB-03-CE6 cells) | Molecule | regulation of SFRP mRNA (hOB SFRP mRNA; 24 hr, 37° C.) | time course of hOB SFRP mRNA expression (hOB SFRP mRNA; hOB-03-C5 cells, 100 nM, 2 to 24 hr) | hOB SFRP mRNA expression (hOB SFRP mRNA; hOB-03-C5 cells, 100 nM, 24 hr) | hOB SFRP mRNA expression (hOB SFRP mRNA; maturation-stage hOB-03-CE6 cells) | up-regulation of steady-state SFRP mRNA levels (hOB SFRP mRNA; normal hOB cells (explant cultures), 100 nM, 24 hr, 37° C.) | β-catenin protein levels (β-catenin) | suppression of hOB SFRP mRNA levels (hOB SFRP mRNA; hOB-01-C1 cells, 100 pM, 24 hr)
1 | ~8 nM | about 10 times | CCCCC[C@H](O)/C=C/[C@H]1[C@H](O)CC(=O)[C@@H]1C/C=C\CCCC(=O)O [PGE2, prostaglandin E2] | not regulated | up-regulated hOB SFRP mRNA expression in a time-dependent manner | completely up-regulated | up-regulation | ~1.3 fold | down-regulated | –
2 | – | – | human transforming growth factor-β1 [TGF-β1] | not regulated | – | – | – | – | – | 80%
